Laboratory results taken from publication PMC4452343, “Monitoring β-arrestin recruitment via β-lactamase enzyme fragment complementation: purification of peptide E as a low-affinity ligand for mammalian bombesin receptors” (PLoS ONE, 2015).

Key:
[1] = biological target: T1, hNMBR (Homo sapiens, UniProt P28336); experiment: NFAT-luciferase reporter assay in CHO cells expressing hNMBR; type: cell-based; details: 6 h incubation, read-out: EC50, activation of NFAT-promotor
T1 construct: expressed in transfected cells; host or cells: CHO cells stably expressing hNMBR
T1 sequence (P28336 whole entry): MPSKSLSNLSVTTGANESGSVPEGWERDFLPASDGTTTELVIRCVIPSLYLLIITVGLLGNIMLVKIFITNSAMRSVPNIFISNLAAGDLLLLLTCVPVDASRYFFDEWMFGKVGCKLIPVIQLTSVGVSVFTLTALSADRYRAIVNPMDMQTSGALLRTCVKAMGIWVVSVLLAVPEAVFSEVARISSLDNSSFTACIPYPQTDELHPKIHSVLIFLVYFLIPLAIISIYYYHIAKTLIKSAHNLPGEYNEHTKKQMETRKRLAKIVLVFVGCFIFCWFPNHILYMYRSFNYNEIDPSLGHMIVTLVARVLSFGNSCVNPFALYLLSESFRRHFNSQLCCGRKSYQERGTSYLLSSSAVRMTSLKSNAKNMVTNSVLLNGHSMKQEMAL
Experimental: CHO cells stably expressing the GPCR of interest were transiently transfected with NFAT-TA-Luc plasmid (Clontech). Cells were then left overnight before being plated in 96 well plates (20000 cells/well). After an additional 24 h, the synthetic ligands were added to the wells and incubated for 6 h. Following incubation, firefly luciferase assays were performed using the Steady-Glo Luciferase Assay System (Promega). Luminescence was detected with a plate reader (Victor V: Perkin Elmer), according to the manufacturer’s instructions. EC50 values were calculated using Workout 2.0 Data Analysis Software (Perkin Elmer).

[2] = test system: hOX1R; experiment: ß-lactamase EFC assay of ß-arrestin recruitment, OX1R reporter cells; type: cell-based, human; details: 14 h ligand incubation, CCF4/AM substrate
Experimental: CHO cells stably expressing both the GPCR-omega chimera and ß-arrestin 2-alpha chimera were plated either in 6 well plates or in 96 well plates. After 24 h, ligands or HPLC fractions were added to the wells, and incubated for 14 h. After incubation, cells were washed once in HBSS and then incubated with CCF4/AM substrate for 2 h. ß-lactamase activity was measured either by FACS or with a plate reader (Victor V: Perkin Elmer).

| Compound | EC50 [1] | Response in ß-lactamase EFC assay (ß-arrestin recruitment to OX1R) [2] |
| --- | --- | --- |
| CSCC[C@H](NC(=O)[C@H](Cc1ccccc1)NC(=O)[C@H](Cc1cnc[nH]1)NC(=O)CNC(=O)[C@@H](NC(=O)[C@H](C)NC(=O)[C@H](Cc1c[nH]c2ccccc12)NC(=O)[C@H](CC(C)C)NC(=O)[C@H](CC(N)=O)NC(=O)CN)[C@@H](C)O)C(N)=O [NMB, neuromedin B] | 0.16 nM |  |
| orexin-A (QPLPDCCRQKTCSCRLYELLHGAGNHAAGILTL) [unrelated peptide; ligand of orexin type 1 receptor, used as control] |  | responded specifically to orexin-A |
